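Method: 48-hour compound exposure of cells in 96-well plates, five concentrations, linear interpolation of endpoints. GI50 = concentration required for 50% inhibition of growth.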 Active and inactive are the calls of the source. Rule as the data show it: active = GI50 up to about 1.1 µM and inactive = higher.
How the values were obtained:
Experiment in all cases: NCI anticancer screen, dose series, 48 h
[1] = system: A549
[2] = system: ACHN
[3] = system: EKVX
[4] = system: HCT-15
[5] = system: KM12
[6] = system: M14
[7] = system: MCF7
[8] = system: OVCAR-3
[9] = system: OVCAR-5
[10] = system: OVCAR-8
[11] = system: SF-268
[12] = system: SF-539
[13] = system: SK-MEL-28
[14] = system: SK-MEL-2
[15] = system: SK-MEL-5
[16] = system: SNB-19
[17] = system: SR
[18] = system: SW-620
[19] = system: TK-10
[20] = system: U-251

In the case of `CCCCn1c(C)c(C(=O)OCC)c2cc(OCc3ccc(C(=O)Nn4c(C)ccc4C)cc3)c(Br)cc21`, the GI50 [1] is reported as > 100 µM (inactive), the GI50 [2] is reported as > 100 µM (inactive) and the GI50 [3] is reported as > 100 µM (inactive). The GI50 [4] was > 100 µM, the GI50 [5] was > 100 µM (inactive) and the GI50 [6] was > 100 µM (inactive). For the same compound, the GI50 [7] was > 100 µM (inactive), the GI50 [8] was > 100 µM (inactive) and the GI50 [9] was > 100 µM (inactive). For the same compound, the GI50 [10] was > 100 µM (inactive), the GI50 [11] was > 100 µM (inactive) and the GI50 [12] was > 100 µM (inactive). For the same compound, the GI50 [13] was > 100 µM (inactive), the GI50 [14] was > 100 µM (inactive) and the GI50 [15] was > 100 µM (inactive). The GI50 [16] was > 100 µM (inactive), the GI50 [17] was > 100 µM (inactive) and the GI50 [18] was > 100 µM (inactive). For the same compound, the GI50 [19] was > 100 µM (inactive) and the GI50 [20] was > 100 µM (inactive).

With `Nc1ccc(C(=O)O)cc1.Nc1nc(N)c2nc[nH]c2n1` the GI50 [1] was 13.3 µM (inactive), the GI50 [2] was 17 µM (inactive) and the GI50 [3] was 14.5 µM (inactive). For the same compound, the GI50 [4] was 28.8 µM, the GI50 [5] was 22.3 µM (inactive) and the GI50 [6] was 10.7 µM (inactive). For the same compound, the GI50 [7] was 3.97 µM (inactive), the GI50 [8] was 19.1 µM (inactive) and the GI50 [9] was 17.1 µM (inactive). For the same compound, the GI50 [10] was 22.1 µM (inactive), the GI50 [11] was 60.8 µM (inactive) and the GI50 [12] was > 100 µM (inactive). The GI50 [13] was 33 µM (inactive), the GI50 [14] was 22.9 µM (inactive) and the GI50 [15] was 21.5 µM (inactive). For the same compound, the GI50 [16] was 40.7 µM (inactive), the GI50 [17] was 33.2 µM (inactive) and the GI50 [18] was 25.7 µM (inactive). The GI50 [19] was 19.8 µM (inactive) and the GI50 [20] was 43.9 µM (inactive).

With `c1ccc(C2=Nc3cccc4cccc(c34)N2)cc1` the GI50 [1] was 56.9 µM (inactive), the GI50 [2] was 26.2 µM (inactive) and the GI50 [3] was > 51.1 µM (inactive). For the same compound, the GI50 [4] was 28.6 µM, the GI50 [5] was 28.3 µM (inactive) and the GI50 [6] was 44.7 µM (inactive). The GI50 [7] was 40.8 µM (inactive), the GI50 [8] was 23.7 µM (inactive) and the GI50 [9] was 69.5 µM (inactive). For the same compound, the GI50 [10] was 35.5 µM (inactive), the GI50 [11] was 44.8 µM (inactive) and the GI50 [12] was 56.2 µM (inactive). For the same compound, the GI50 [13] was > 79.1 µM (inactive), the GI50 [14] was > 46.3 µM (inactive) and the GI50 [15] was 56.2 µM (inactive). For the same compound, the GI50 [16] was > 100 µM (inactive), the GI50 [17] was 9.48 µM (inactive) and the GI50 [18] was 20.4 µM (inactive). For the same compound, the GI50 [19] was 48.9 µM (inactive) and the GI50 [20] was > 100 µM (inactive).

`CC(C)=CCC[C@@H](C)C1=C(O)C(=O)C(C)=C(Nc2ccccc2Br)C1=O` was tested, and the GI50 [1] was 17.8 µM (inactive), the GI50 [2] was 15.6 µM (inactive) and the GI50 [3] was 17.3 µM (inactive). The GI50 [4] was 6.65 µM, the GI50 [5] was 12.5 µM (inactive) and the GI50 [6] was 15.2 µM (inactive). The GI50 [7] was 18.2 µM (inactive), the GI50 [8] was 4.13 µM (inactive) and the GI50 [9] was 20.3 µM (inactive). For the same compound, the GI50 [10] was 7.57 µM (inactive), the GI50 [11] was 7.89 µM (inactive) and the GI50 [12] was 8.59 µM (inactive). For the same compound, the GI50 [13] was 14.4 µM (inactive), the GI50 [14] was 13.3 µM (inactive) and the GI50 [15] was 11.5 µM (inactive). The GI50 [16] was 16.4 µM (inactive), the GI50 [17] was 9.66 µM (inactive) and the GI50 [18] was 17.3 µM (inactive). The GI50 [19] was 22.4 µM (inactive) and the GI50 [20] was 8.91 µM (inactive).

With `O=C(CCl)Nc1ccc(-c2nc3ccccc3s2)cc1` the GI50 [1] was 10 µM (inactive), the GI50 [2] was 5.28 µM (inactive) and the GI50 [3] was 6.97 µM (inactive). For the same compound, the GI50 [4] was 2.18 µM, the GI50 [5] was 3.3 µM (inactive) and the GI50 [6] was 1.97 µM (inactive). The GI50 [7] was 0.184 µM (active), the GI50 [8] was 1.82 µM (inactive) and the GI50 [9] was 5.82 µM (inactive). For the same compound, the GI50 [10] was 2.59 µM (inactive), the GI50 [11] was 2.81 µM (inactive) and the GI50 [12] was 3.04 µM (inactive). For the same compound, the GI50 [13] was 4.12 µM (inactive), the GI50 [14] was 2.65 µM (inactive) and the GI50 [15] was 1.6 µM (inactive). The GI50 [16] was 2.4 µM (inactive), the GI50 [17] was 1.46 µM (inactive) and the GI50 [18] was 2.21 µM (inactive). For the same compound, the GI50 [19] was 15.7 µM (inactive) and the GI50 [20] was 1.64 µM (inactive).

With `O=c1c2cc(I)ccc2nc(SCc2nncs2)n1Cc1ccccc1` the GI50 [1] was 22.9 µM (inactive), the GI50 [2] was 9.33 µM (inactive) and the GI50 [3] was 7 µM (inactive). For the same compound, the GI50 [4] was 50.2 µM, the GI50 [5] was 11.8 µM (inactive) and the GI50 [6] was 9.06 µM (inactive). The GI50 [7] was 35.6 µM (inactive), the GI50 [8] was 12.3 µM (inactive) and the GI50 [9] was 99.5 µM (inactive). The GI50 [10] was 36.5 µM (inactive), the GI50 [11] was 14.1 µM (inactive) and the GI50 [12] was 22.8 µM (inactive). The GI50 [13] was 90.2 µM (inactive), the GI50 [14] was 16.1 µM (inactive) and the GI50 [15] was 6.71 µM (inactive). For the same compound, the GI50 [16] was 19.5 µM (inactive), the GI50 [17] was 15.4 µM (inactive) and the GI50 [18] was > 100 µM (inactive). For the same compound, the GI50 [19] was 29.5 µM (inactive) and the GI50 [20] was 16.9 µM (inactive).

For `COc1cccc(C(C#N)NC23CC4CC(CC(C4)C2)C3)c1` (stereo not given), the GI50 [1] was > 100 µM (inactive), the GI50 [2] was > 100 µM (inactive) and the GI50 [3] was 85.5 µM (inactive). For the same compound, the GI50 [4] was > 100 µM, the GI50 [5] was > 100 µM (inactive) and the GI50 [6] was > 100 µM (inactive). The GI50 [7] was > 100 µM (inactive), the GI50 [8] was > 100 µM (inactive) and the GI50 [9] was > 100 µM (inactive). The GI50 [10] was > 100 µM (inactive), the GI50 [11] was > 100 µM (inactive) and the GI50 [12] was > 100 µM (inactive). For the same compound, the GI50 [13] was > 100 µM (inactive), the GI50 [14] was > 100 µM (inactive) and the GI50 [15] was > 100 µM (inactive). For the same compound, the GI50 [16] was > 100 µM (inactive), the GI50 [17] was > 100 µM (inactive) and the GI50 [18] was > 100 µM (inactive). For the same compound, the GI50 [19] was > 100 µM (inactive) and the GI50 [20] was > 100 µM (inactive).
